In PubChem BioAssay (NCI) one finds GI50 and TGI data, which are given here for eight compounds.

Structures are written as SMILES.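 1) Cells in 96-well plates. 2) Compound, 48 h, 5 concentrations. 3) Linear interpolation between surrounding doses. 4) Unreached endpoint = highest concentration. The concentration for 50% growth inhibition is given as GI50. TGI is the concentration that stops growth completely.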

Test systems include SK-MEL-2 melanoma; HCC-2998 colon; SK-MEL-28 melanoma; OVCAR-5 ovarian; DU-145 prostate; HCT-15 colon; MCF7 breast; A549 NSCLC; ACHN renal; MOLT-4 leukemia.
Test in all cases: DTP human tumour cell line panel, 48 h

One may read the GI50 as the concentration at which growth is held to half of that of the control. One may read the TGI as the concentration giving total growth inhibition. Take `C=C1C(=O)O[C@H]2[C@H]1CC/C(COC(=O)NCc1ccc(Cn3c(=O)sn(CCCCl)c3=O)cc1)=C\CC[C@@]1(C)O[C@@H]21`: the GI50 in the experiment on SK-MEL-2 melanoma is 4830 nM; with HCC-2998 colon, 7830 nM; with SK-MEL-28 melanoma, 1690 nM; in the experiment on OVCAR-5 ovarian, 2640 nM; in the experiment on DU-145 prostate, 1.64 µM; with HCT-15 colon it was 1940 nM. In addition, the GI50 is 1710 nM in the experiment with MCF7 breast, 19200 nM in the experiment with A549 NSCLC, 1660 nM in the experiment on ACHN renal and 1500 nM in the experiment with MOLT-4 leukemia. In addition, the concentration for total growth inhibition (TGI) in the experiment on SK-MEL-2 melanoma is 17.4 µM; in the experiment on HCC-2998 colon it was 21.4 µM; in the experiment with SK-MEL-28 melanoma, 3.16 µM; with OVCAR-5 ovarian, 5.95 µM; with DU-145 prostate, 3.15 µM; in the experiment on HCT-15 colon it was 4.25 µM. Moreover, the TGI in the experiment on MCF7 breast was 4.54 µM; in the experiment on A549 NSCLC it was 34.6 µM; with ACHN renal it was 3.05 µM; in the experiment on MOLT-4 leukemia, 5.41 µM.
Take `COc1ccc(/C=C/c2nc(NCCCN(C)C)c3ccccc3n2)cc1`: the GI50 with SK-MEL-2 melanoma was 1880 nM; with HCC-2998 colon, 13800 nM; with SK-MEL-28 melanoma, 4570 nM; in the experiment on OVCAR-5 ovarian it was 5580 nM; in the experiment on DU-145 prostate, 13.9 µM; in the experiment on HCT-15 colon, 16300 nM. The GI50 in the experiment with MCF7 breast was 1720 nM; with A549 NSCLC it was 2620 nM; in the experiment with ACHN renal, 17100 nM; with MOLT-4 leukemia it was 1610 nM. For the same compound, the concentration for total growth inhibition (TGI) in the experiment with SK-MEL-2 melanoma stood at 3.52 µM; in the experiment on HCC-2998 colon, 27.6 µM; in the experiment on SK-MEL-28 melanoma, 9 µM; with OVCAR-5 ovarian, 13.6 µM; with DU-145 prostate it was 27 µM; with HCT-15 colon, 30.8 µM. Besides, the TGI with MCF7 breast was 3.23 µM; in the experiment on A549 NSCLC, 7.65 µM; with ACHN renal, 31.7 µM; with MOLT-4 leukemia, 3.55 µM.
Take `COCCOC(=O)NC(=O)Nc1ccc(/C(=N/O)c2ccc(Cl)cc2)cc1`: the TGI with SK-MEL-2 melanoma turned out to be 29 µM; with HCC-2998 colon, 7.04 µM; in the experiment with SK-MEL-28 melanoma, 48 µM; with OVCAR-5 ovarian, 52.8 µM; in the experiment with DU-145 prostate, 20.4 µM; with HCT-15 colon, 19.8 µM. For the same compound, the TGI with MCF7 breast was 37.9 µM; with A549 NSCLC, more than 85.3 µM; in the experiment on ACHN renal, 48.8 µM; with MOLT-4 leukemia it was 7.76 µM. For the same compound, the GI50 was 200 nM with HCC-2998 colon; 11500 nM in the experiment with SK-MEL-28 melanoma; 308 nM with OVCAR-5 ovarian; 0.121 µM in the experiment on DU-145 prostate; 84.2 nM in the experiment on HCT-15 colon; 98.9 nM with MCF7 breast. The results for the GI50 in the experiment with A549 NSCLC, with ACHN renal and in the experiment on MOLT-4 leukemia were 284 nM, 186 nM and 109 nM, respectively.
Consider `CCCCCCCCCCN(CCCCCCCCCC)CC(=O)c1ccc2cc(Br)c3ccccc3c2c1`, for which the GI50 was 1840 nM in the experiment on SK-MEL-2 melanoma; 1730 nM with HCC-2998 colon; 1840 nM in the experiment with SK-MEL-28 melanoma; 2230 nM in the experiment on OVCAR-5 ovarian; 3.69 µM in the experiment on DU-145 prostate; 1520 nM in the experiment on HCT-15 colon. The GI50 with MCF7 breast is 1800 nM; in the experiment with A549 NSCLC it was 4150 nM; in the experiment on ACHN renal, 1680 nM; with MOLT-4 leukemia, 2660 nM. Further, the TGI in the experiment with SK-MEL-2 melanoma was found to be 3.48 µM; in the experiment on HCC-2998 colon it was 3.16 µM; in the experiment on SK-MEL-28 melanoma, 3.32 µM; with OVCAR-5 ovarian, 5.6 µM; in the experiment with DU-145 prostate, 10.3 µM; in the experiment on HCT-15 colon it was 3.34 µM. For the same compound, the TGI in the experiment on MCF7 breast is 3.25 µM; with A549 NSCLC it was 14.4 µM; with ACHN renal, 3.19 µM; in the experiment on MOLT-4 leukemia, 6.2 µM.
Turning to `O=C(Nc1ccc(F)cc1)c1c(NC(=O)C(F)(F)F)sc2c1CCCCC2`, the GI50 with SK-MEL-2 melanoma is 1470 nM; with HCC-2998 colon, 2060 nM; in the experiment with SK-MEL-28 melanoma, 2110 nM; in the experiment with OVCAR-5 ovarian it was 2890 nM; in the experiment on DU-145 prostate, 3.43 µM; with HCT-15 colon it was 2590 nM. Moreover, the GI50 in the experiment with MCF7 breast is 1970 nM; in the experiment with A549 NSCLC it was 2640 nM; in the experiment with ACHN renal, 2110 nM; in the experiment on MOLT-4 leukemia, 2650 nM. Moreover, the TGI with SK-MEL-2 melanoma is 6.75 µM; with HCC-2998 colon, 10 µM; in the experiment with SK-MEL-28 melanoma, 13.9 µM; in the experiment on OVCAR-5 ovarian, 13.1 µM; in the experiment with DU-145 prostate it was 87.1 µM; in the experiment on HCT-15 colon, 10.8 µM. Also, the total growth inhibition concentration (TGI) in the experiment with MCF7 breast is 9.84 µM; with A549 NSCLC, 12 µM; with ACHN renal, 7.93 µM; in the experiment on MOLT-4 leukemia it was 15.2 µM.
On to `O=c1[nH]c(=O)n(C2OC(CO)C(O)C2O)c2c1CCCC2` (centres undefined), for which the TGI in the experiment on SK-MEL-2 melanoma, in the experiment with HCC-2998 colon, in the experiment with SK-MEL-28 melanoma, with OVCAR-5 ovarian, with DU-145 prostate and in the experiment on HCT-15 colon was more than 100 µM each time. Also, the TGI in the experiment with MCF7 breast, in the experiment with A549 NSCLC, in the experiment on ACHN renal and in the experiment with MOLT-4 leukemia was more than 100 µM in each case.
As to `Cn1c(=O)c(Oc2ccccc2F)cc2cnc(NC3CCOCC3)nc21`, the GI50 in the experiment with SK-MEL-2 melanoma is more than 25000 nM; with HCC-2998 colon it was more than 25000 nM; in the experiment with SK-MEL-28 melanoma, more than 25000 nM; in the experiment with OVCAR-5 ovarian, more than 25000 nM; with DU-145 prostate, more than 25 µM; with HCT-15 colon, more than 25000 nM. Further, the GI50 in the experiment on MCF7 breast, in the experiment on A549 NSCLC, with ACHN renal and in the experiment with MOLT-4 leukemia was more than 25000 nM throughout. Moreover, the TGI in the experiment on SK-MEL-2 melanoma, with HCC-2998 colon, with SK-MEL-28 melanoma, in the experiment on OVCAR-5 ovarian, in the experiment with DU-145 prostate and in the experiment on HCT-15 colon was more than 25 µM each time. The concentration for total growth inhibition (TGI) in the experiment on MCF7 breast, in the experiment with A549 NSCLC, in the experiment on ACHN renal and with MOLT-4 leukemia was more than 25 µM in each case.
As to `C[C@]1(CO)[C@H]2CC[C@@]34C=C[C@@](CO)(CC[C@H]3[C@]2(C)CC[C@H]1O)C4`, the TGI with SK-MEL-2 melanoma, in the experiment with HCC-2998 colon, with SK-MEL-28 melanoma, in the experiment on OVCAR-5 ovarian, with DU-145 prostate and with HCT-15 colon was more than 100 µM throughout. Moreover, the TGI is more than 100 µM with MCF7 breast, more than 100 µM in the experiment on A549 NSCLC, more than 100 µM in the experiment with ACHN renal and 48.9 µM in the experiment on MOLT-4 leukemia.
